Reference: patent US6896883B2 (priority 1997, dated 2005)

Tested on: F. graminearum
Type: in vivo
Conditions: wheat seeds in F. graminearum-infested soil, 7 days after planting

c1ccc2[nH]c(-c3cscn3)nc2c1 [Thiabendazole, thiabendazole]
% Germination: 80 a %
